Measurements taken from US12186306B2, “Methods of treatment for cystic fibrosis” (Vertex Pharmaceuticals Incorporated, priority 2020, dated 2025).
Structures can show the parent of a compound that is named as a salt.

Legend:
[1] = test system: subjects with gating mutations; assay: Clinical trial: absolute change in SwCl at 12 weeks in subjects with gating mutations on stable ivacaftor treatment; safety and tolerability; type: in vivo, human; settings: for Absolute change in SwCl at Week 12: LS mean (SE): subjects with gating mutations
Experimental: In a clinical trial, a comparative study was conducted on absolute changes in SwCl at 12 weeks in subjects with gating mutations where were on stable treatment with ivacaftor.

[2] = Relative stability of solid (polymorphic) forms of Compound II; type: physicochemical
[3] = Comparison of calcium salt hydrate forms: dissolution, solubility, exposure; type: physicochemical; settings: than the other calcium salt hydrate forms

Compound: [2H]C([2H])([2H])C(c1cc(C(C)(C)C)c(NC(=O)c2c[nH]c3ccccc3c2=O)cc1O)(C([2H])([2H])[2H])C([2H])([2H])[2H] [Compound I, N-(2-(tert-butyl)-5-hydroxy-4-(2-(methyl-d3)propan-2-yl-1,1,1,3,3,3-d6)phenyl)-4-oxo-1,4-dihydroquinoline-3-carboxamide]
- Safety and tolerability ([1]; 150 mg and 250 mg for 12 weeks): generally safe and well tolerated
- SwCl compared to ivacaftor baseline ([1]; 150 mg dose, week 12): decrease in SwCl
- Absolute change in SwCl at Week 12: LS mean difference vs Ivacaftor ([1]; 150 mg qd vs ivacaftor 150 mg q12h, week 12): 2.4
- Absolute change in SwCl at Week 12: LS mean (SE) ([1]; 150 mg qd, N = 23, week 12): 3.3
- SwCl at week 12 compared to the ivacaftor baseline ([1]; 250 mg dose): improvement in SwCl
- Absolute change in SwCl at Week 12: LS mean difference vs Ivacaftor ([1]; 250 mg qd vs ivacaftor 150 mg q12h, week 12): −7.3
- Absolute change in SwCl at Week 12: LS mean (SE) ([1]; 250 mg qd, N = 24, week 12): −6.5

Compound: CC1(C)C[C@@H]2CCCNc3cccc(n3)S(=O)(=O)NC(=O)c3ccc(-n4ccc(OCCC5C6(CC6)C56CC6)n4)nc3N1C2 [Compound II calcium salt hydrate Form A, (14S)-8-[3-(2-{Dispiro[2.0.2.1]heptan-7-yl}ethoxy)-1H-pyrazol-1-yl]-12,12-dimethyl-2λ6-thia-3,9,11,18,23-pentaazatetracyclo[17.3.1.111,14.05,10]tetracosa-1(22),5,7,9,19(23),20-hexaene-2,2,4-trione]
- Kinetic preference among calcium salt hydrate forms [2]: most kinetically favored calcium salt hydrate form
- Dissolution [3]: higher
- Exposure [3]: higher
- Solubility [3]: higher

Compound: CC1(C)C[C@@H]2CCCNc3cccc(n3)S(=O)(=O)NC(=O)c3ccc(-n4ccc(OCCC5C6(CC6)C56CC6)n4)nc3N1C2 [Compound II calcium salt hydrate Form D, (14S)-8-[3-(2-{Dispiro[2.0.2.1]heptan-7-yl}ethoxy)-1H-pyrazol-1-yl]-12,12-dimethyl-2λ6-thia-3,9,11,18,23-pentaazatetracyclo[17.3.1.111,14.05,10]tetracosa-1(22),5,7,9,19(23),20-hexaene-2,2,4-trione]
- Polymorphic form stability ([2]; in IPA/water at water activity 0.1-0.95 from ambient temperature to 60° C.): most stable polymorphic form
- Stability among calcium salt hydrate forms ([2]; under certain conditions, such as in mixtures of ethanol and water): most stable form of calcium salt hydrate

Compound: CC1(C)C[C@@H]2CCCNc3cccc(n3)S(=O)(=O)NC(=O)c3ccc(-n4ccc(OCCC5C6(CC6)C56CC6)n4)nc3N1C2 [Compound II free Form A, (14S)-8-[3-(2-{Dispiro[2.0.2.1]heptan-7-yl}ethoxy)-1H-pyrazol-1-yl]-12,12-dimethyl-2λ6-thia-3,9,11,18,23-pentaazatetracyclo[17.3.1.111,14.05,10]tetracosa-1(22),5,7,9,19(23),20-hexaene-2,2,4-trione]
- Polymorphic form stability ([2]; water activity ≤0.95 at ambient temperature): most stable polymorphic form

Compound: CC(C)(C)c1cc(C(C)(C)C)c(NC(=O)c2c[nH]c3ccccc3c2=O)cc1O [Ivacaftor, reference compound]
- Absolute change in SwCl at Week 12: LS mean (SE) ([1]; 150 mg q12h, N = 11, week 12): 0.9
